Reference: article PMC4364612
Like-named read-outs stand apart in the source and are kept apart here. Ends that are not written are not given here. Peptide text beside a SMILES is read from it. * marks the point of attachment. Cbz = O=C(OCc1ccccc1)*

How the values were obtained:
[1] = Intracellular stability of optimal epitopes, DC and Mø extracts; assay type: in vitro ADME, Human; settings: 37°C
Protocol: One nmol of highly purified peptide was degraded in 15μg of whole cell extracts at 37°C in degradation buffer at pH7.4 or pH4.0 [37]. Aliquots were taken at 0, 10, 30, and 60 minutes, and the reaction was stopped with 2.5μL of 100% TFA. The remaining peptide at each time point was quantified by reversed-phase HPLC (RP-HPLC; Waters). 100% represents the amount of peptide detected at time point 0 calculated as the area under the peptide peak. A stability rate of each peptide was calculated by a nonlinear regression (one-phase exponential decay) of the degradation profile obtained over a 60-minute incubation [35, 44]. Peptides incubated in buffer without cell extracts were used as controls.

[2] = Intracellular stability of optimal epitopes, immature DC extracts; assay type: in vitro ADME, Human; settings: RP-HPLC; for stability rate at pH4.0 relative to pH7.4: immature DC extract, pH4.0, 37°C, 60-minute incubation, three independent experiments; for half-life: human, cells or culture medium, 1nmol peptide, 15μg immature DC whole cell extract, aliquots 0, 10, 30, 60 minutes, one-phase exponential decay
Protocol: The proteolytic activities of cathepsin S (cell, 50μM; extracts, 10μM Z-VVR-AMC), omni cathepsins (cell, 50μM; extracts, 50μM Z-FR-AMC), cathepsin D&E (extracts, 10μM Mca-[…]-Dnp, Enzo Life Sciences), and cathepsin B (extracts, 50μM Z-RR-AMC, Bachem) were measured by cleavage of peptide-specific fluorogenic substrates. […] For cell extracts, equivalent amounts as determined by total protein concentration were used in reaction buffer (50mM sodium chloride, 50mM potassium phosphate, 2mM DTT, 2mM EDTA; pH 7.4, pH5.5 or pH4.0, respectively). The rate of fluorescence emission, which is proportional to the proteolytic activity, was measured every 5 minutes at 37°C in a Victor-3 Plate Reader (Perkin Elmer).
One nmol of highly purified peptide was degraded in 15μg of whole cell extracts at 37°C in degradation buffer at pH7.4 or pH4.0 [37]. Aliquots were taken at 0, 10, 30, and 60 minutes, and the reaction was stopped with 2.5μL of 100% TFA. The remaining peptide at each time point was quantified by reversed-phase HPLC (RP-HPLC; Waters). 100% represents the amount of peptide detected at time point 0 calculated as the area under the peptide peak. A stability rate of each peptide was calculated by a nonlinear regression (one-phase exponential decay) of the degradation profile obtained over a 60-minute incubation. Peptides incubated in buffer without cell extracts were used as controls.

[3] = In vitro peptide degradation assay with mass spectrometry, immature DC extracts; assay type: in vitro ADME, Human; settings: immature DC whole cell extracts, 120 minutes, pH7.4, pH5.5 and pH4.0, 37°C; LC-MS cleavage patterns; representative of two experiments
[4] = system: immature Møs presenting to epitope-specific CTL clones; assay: ELISPOT cross-presentation assay with immature Møs; assay type: cell-based, Human; settings: IFN-gamma ELISPOT, n≥5 donors; for change of B57-ISW9 cross-presentation upon inhibitor pretreatment: immature Møs pre-incubated 45 minutes with 10μM MG132 or 5μM E64 before p24 protein; for change of B57-KF11 CTL responses upon inhibitor pretreatment, decrease / change of B57-TW10 CTL responses upon inhibitor pretreatment, decrease: immature Møs pre-incubated with 10μM MG132, epoxomicin or 5μM E64 before p24 protein
Protocol: (§1) Human peripheral blood mononuclear cells (PBMCs) were isolated by Ficoll-Hypaque (Sigma-Aldrich) density centrifugation. Monocytes were enriched using CD14+ magnetic isolation kits (StemCell) and differentiated into DCs and Møs during a 6-day culture. DCs were cultured in AIM-V media with 1% human serum AB (Gemini Bio-Products) supplemented with 20ng/mL IL-4 and 10ng/mL GM-CSF (CellGenix). On days 2 and 4, fresh IL-4 and GM-CSF were added. Møs were cultured in ultra low attachment plates (Corning) in AIM-V media with 10% human serum AB. Where indicated, maturation of DCs and Møs was induced by TLR ligand stimulation with 2μg/mL LPS, 1μg/mL CL097, or 1μg/mL R848 (Invivogen) for 2 days. Epitope-specific CTL clones were maintained in the presence of 50U/mL IL-2, using 0.1μg/mL CD3-specific mAb 12F6, and irradiated feeder cells as stimulus for T cell proliferation.
(§2) Immature DCs and Møs were exposed to recombinant HIV-1 p24-protein, HIV-1 p55-protein or control protein (Protein Sciences Corporation, USA) for 1hr at 37°C. Where indicated, cells were pre-incubated for 45 minutes with inhibitors for proteasome (10μM MG132 (Enzo Life Sciences)) or cysteine proteases (5μM E64 (Sigma-Aldrich)). Cells pulsed with equivalent molar concentrations of the optimal epitopes were used as controls for antigen presentation and CTL clone specificity. DCs and Møs were thoroughly washed and cultured overnight with epitope-specific CTL clones at a 2:1 effector-to-target ratio in 96-well plates (Millipore) coated with anti-IFN-y mAb 1-D1K (Mabtech). ELISPOT plates were washed and developed as described previously.

[5] = system: immature DCs presenting to epitope-specific CTL clones; assay: ELISPOT cross-presentation assay with immature DCs; assay type: cell-based, Human; settings: IFN-gamma ELISPOT, n≥5 donors; for change of B57-KF11 cross-presentation (CTL response) upon inhibitor pretreatment, increase: immature DCs pre-incubated 45 minutes with 10μM MG132, 5μM E64 or epoxomicin before p24 protein; for change of B57-ISW9 cross-presentation (CTL response) upon inhibitor pretreatment, increase: immature DCs pre-incubated 45 minutes with 10μM MG132 or 5μM E64 before p24 protein
Protocol: as §1, §2

Row | Compound | stability rate at pH4.0 relative to pH7.4 [2] | change of B57-KF11 CTL responses upon inhibitor pretreatment, decrease [4] | change of B57-TW10 CTL responses upon inhibitor pretreatment, decrease [4] | change of B57-KF11 cross-presentation (CTL response) upon inhibitor pretreatment, increase [5] | further results
1 | FSPEVIPMF [B57-FF9] | dramatically reduced |  |  |  | stability rate compared with overlapping epitope B57-KF11 ([1]; extracts of DCs and Møs, RP-HPLC, three independent experiments): comparable
2 | CC[C@H](C)[C@H](NC(=O)[C@H](CCCCN)NC(=O)[C@H](CCC(=O)O)NC(=O)[C@H](Cc1c[nH]c2ccccc12)NC(=O)[C@@H](N)CCCNC(=N)N)C(=O)N[C@@H](CCCNC(=N)N)C(=O)N[C@@H](CC(C)C)C(=O)N[C@@H](CCCNC(=N)N)C(=O)N1CCC[C@H]1C(=O)NCC(=O)NCC(=O)N[C@@H](CCCCN)C(=O)N[C@@H](CCCCN)C(=O)N[C@@H](CCCCN)C(=O)N[C@@H](Cc1ccc(O)cc1)C(=O)N[C@@H](CCCCN)C(=O)N[C@@H](CC(C)C)C(=O)O [HIV-1 p17-derived peptide] |  |  |  |  | degradation of A03-RK9 within the p17-derived peptide [3]: minimal degradation
3 | CC(C)C[C@H](NC(=O)[C@H]1O[C@@H]1C(=O)O)C(=O)NCCCCN=C(N)N [E64] |  | did not affect | did not affect | no effect | change of B57-ISW9 cross-presentation upon inhibitor pretreatment [4]: did not affect; change of B57-ISW9 cross-presentation (CTL response) upon inhibitor pretreatment, increase [5]: no effect
4 | CC[C@H](C)[C@H](NC(=O)[C@H]([C@@H](C)CC)N(C)C(C)=O)C(=O)N[C@H](C(=O)N[C@@H](CC(C)C)C(=O)[C@@]1(C)CO1)[C@@H](C)O [epoxomicin] |  | 2 fold | 3 fold | 11 fold | 
5 | CC(C)C[C@@H](C=O)NC(=O)[C@H](CC(C)C)NC(=O)[C@H](CC(C)C)NC(=O)OCc1ccccc1 [MG132] (Cbz-Leu-Leu-Leu-aldehyde) |  | 2 fold | 3 fold | 4 fold | change of B57-ISW9 cross-presentation upon inhibitor pretreatment [4]: not affected; change of B57-TW10-specific CTL responses upon inhibitor pretreatment, decrease ([5]; immature DCs pre-incubated 45 minutes with 10μM MG132 before p24 protein): approximately 3 fold; change of B57-ISW9 cross-presentation (CTL response) upon inhibitor pretreatment, increase [5]: 43 fold
6 | ISPRTLNAW [B57-ISW9] | dramatically reduced |  |  |  | 
7 | CC[C@H](C)[C@H](NC(=O)[C@H](C)N)C(=O)N[C@@H](Cc1ccccc1)C(=O)N[C@@H](CCC(N)=O)C(=O)N[C@@H](CO)C(=O)N[C@@H](CO)C(=O)N[C@@H](CCSC)C(=O)N[C@H](C(=O)N[C@@H](CCCCN)C(=O)O)[C@@H](C)O [A11-ATK9] | dramatically reduced |  |  |  | 
8 | CC[C@H](C)[C@H](NC(=O)[C@H](CCC(N)=O)NC(=O)[C@H](CCC(=O)O)NC(=O)[C@H](CCC(N)=O)NC(=O)[C@H](CC(C)C)NC(=O)[C@H](CC(N)=O)NC(=O)[C@H](CO)NC(=O)[C@@H](N)[C@@H](C)O)C(=O)N[C@@H](C)C(=O)N[C@@H](Cc1c[nH]c2ccccc12)C(=O)O |  |  |  |  | cytosolic and lysosomal stability relative to B57-TW10, fold reduced ([1]; 1nmol peptide, 15μg immature DC or Mø extracts, pH7.4 and pH4.0 (both compartments), RP-HPLC stability rate, mean of three independent experiments): 7- to 8 fold
9 | CC[C@H](C)[C@H](NC(=O)[C@@H](NC(=O)[C@H](CCC(=O)O)NC(=O)[C@@H]1CCCN1C(=O)[C@H](CO)NC(=O)[C@H](Cc1ccccc1)NC(=O)[C@H](C)NC(=O)[C@@H](N)CCCCN)C(C)C)C(=O)N1CCC[C@H]1C(=O)N[C@@H](CCSC)C(=O)N[C@@H](Cc1ccccc1)C(=O)O [B57-KF11] | dramatically reduced |  |  |  | half-life ([2]; pH 4, degradation buffer pH4.0, 37°C, read-out: half-life at pH4.0): 1.9 min; half-life ([2]; pH 7.4, degradation buffer pH7.4, 37°C, read-out: half-life at pH7.4): 20 min; fold faster degraded at pH4.0 than at pH7.4 ([2]; immature DC whole cell extract, 37°C, ratio of half-lives): 10 fold
